Here are results for 16 compounds from patent publication US20200172529A1, “Chemical Compound, Pharmaceutical Composition Thereof, and Use and Application Thereof” (Beijing Hanmi Pharm. Co., Ltd., priority 2017, published 2020).

Holding throughout (format): biochemical
For assay [1], the target named is T1, TYK2 kinase (Homo sapiens, UniProt P29597).
T1 construct: purchased Life Technologies PR8440C
Put plainly: Inhibition assay of TYK2 kinase activity (ADP-Glo Kinase Assay). Put shortly:
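Enzyme at 0.8 ng/mL (2-fold final) in 40 mM Tris-HCl pH 7.5, 20 mM MgCl2, 0.1 mg/mL BSA, 1 mM DTT, preincubated 10 min with compound (6 points, 10-fold dilutions from 10 μM). ATP plus polyE4Y1 then added for 60 min at room temperature. ADP-Glo luminescence read and IC50 derived.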

For assay [2], the target named is JAK1 kinase (Homo sapiens, UniProt P23458). The assay can be described thus: Inhibition assay of JAK1 kinase activity (ADP-Glo Kinase Assay). The text has this:
Inhibition assay of JAK1 kinase activity: the method in ADP-Glo™ Kinase Assay (Promega, V9102) was used to determine the inhibitory activity of the test compounds against JAK1 kinase.
(ADP-Glo first removes unused ATP, then detects ADP through luciferase.)

For assay [3], the target named is JAK2 kinase (Homo sapiens, UniProt O60674). Put plainly: Inhibition assay of JAK2 kinase activity (ADP-Glo Kinase Assay). The text has this:
Inhibition assay of JAK2 kinase activity: the method in ADP-Glo™ Kinase Assay (Promega, V9102) was used to determine the inhibitory activity of the test compounds against JAK2 kinase.

Assay [4] addresses T2, JAK3 kinase (Homo sapiens, UniProt P52333).
T2 sequence (P52333 1-1124): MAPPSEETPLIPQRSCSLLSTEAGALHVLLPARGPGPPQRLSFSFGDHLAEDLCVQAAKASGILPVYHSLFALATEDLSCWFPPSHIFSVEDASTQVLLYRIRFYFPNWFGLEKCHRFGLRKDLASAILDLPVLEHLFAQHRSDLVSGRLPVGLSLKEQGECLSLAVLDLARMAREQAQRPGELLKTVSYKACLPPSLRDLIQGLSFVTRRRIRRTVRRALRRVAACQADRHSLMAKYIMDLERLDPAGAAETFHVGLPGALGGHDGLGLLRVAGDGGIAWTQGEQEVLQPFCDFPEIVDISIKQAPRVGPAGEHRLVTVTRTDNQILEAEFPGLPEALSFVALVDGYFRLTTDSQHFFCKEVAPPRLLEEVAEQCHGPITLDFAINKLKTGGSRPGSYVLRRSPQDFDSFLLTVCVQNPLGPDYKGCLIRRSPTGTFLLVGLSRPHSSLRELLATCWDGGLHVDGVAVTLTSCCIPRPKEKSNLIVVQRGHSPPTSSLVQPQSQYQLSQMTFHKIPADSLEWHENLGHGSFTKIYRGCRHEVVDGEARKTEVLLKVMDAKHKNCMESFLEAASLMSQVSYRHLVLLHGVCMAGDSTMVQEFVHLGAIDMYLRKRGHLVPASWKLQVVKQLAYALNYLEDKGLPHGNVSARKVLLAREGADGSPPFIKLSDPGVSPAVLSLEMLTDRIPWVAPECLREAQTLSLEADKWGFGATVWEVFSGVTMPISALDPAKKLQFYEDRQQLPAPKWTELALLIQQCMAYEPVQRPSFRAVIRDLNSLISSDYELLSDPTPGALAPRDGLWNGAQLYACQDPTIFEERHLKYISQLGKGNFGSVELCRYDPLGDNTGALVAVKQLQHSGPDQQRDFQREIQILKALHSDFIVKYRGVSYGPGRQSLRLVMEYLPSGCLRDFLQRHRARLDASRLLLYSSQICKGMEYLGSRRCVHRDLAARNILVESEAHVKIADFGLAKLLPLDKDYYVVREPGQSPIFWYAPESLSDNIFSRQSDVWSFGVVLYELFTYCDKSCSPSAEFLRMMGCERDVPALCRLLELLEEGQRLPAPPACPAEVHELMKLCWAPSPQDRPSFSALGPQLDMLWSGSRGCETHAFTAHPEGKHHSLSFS
Put plainly: Inhibition assay of JAK3 kinase activity (ADP-Glo Kinase Assay). The text has this: Inhibition assay of JAK3 kinase activity: the method in ADP-Glo™ Kinase Assay (Promega, V9102) was used to determine the inhibitory activity of the test compounds against JAK3 kinase.

The target in assay [5] is SYK kinase (Homo sapiens, UniProt P43405). Put plainly: Inhibition assay of SYK kinase activity (ADP-Glo Kinase Assay). The text has this: Inhibition assay of SYK kinase activity: the method in ADP-Glo™ Kinase Assay (Promega, V9102) was used to determine the inhibitory activity of the test compounds against SYK kinase.

Chain of JAK2 kinase (O60674 whole entry): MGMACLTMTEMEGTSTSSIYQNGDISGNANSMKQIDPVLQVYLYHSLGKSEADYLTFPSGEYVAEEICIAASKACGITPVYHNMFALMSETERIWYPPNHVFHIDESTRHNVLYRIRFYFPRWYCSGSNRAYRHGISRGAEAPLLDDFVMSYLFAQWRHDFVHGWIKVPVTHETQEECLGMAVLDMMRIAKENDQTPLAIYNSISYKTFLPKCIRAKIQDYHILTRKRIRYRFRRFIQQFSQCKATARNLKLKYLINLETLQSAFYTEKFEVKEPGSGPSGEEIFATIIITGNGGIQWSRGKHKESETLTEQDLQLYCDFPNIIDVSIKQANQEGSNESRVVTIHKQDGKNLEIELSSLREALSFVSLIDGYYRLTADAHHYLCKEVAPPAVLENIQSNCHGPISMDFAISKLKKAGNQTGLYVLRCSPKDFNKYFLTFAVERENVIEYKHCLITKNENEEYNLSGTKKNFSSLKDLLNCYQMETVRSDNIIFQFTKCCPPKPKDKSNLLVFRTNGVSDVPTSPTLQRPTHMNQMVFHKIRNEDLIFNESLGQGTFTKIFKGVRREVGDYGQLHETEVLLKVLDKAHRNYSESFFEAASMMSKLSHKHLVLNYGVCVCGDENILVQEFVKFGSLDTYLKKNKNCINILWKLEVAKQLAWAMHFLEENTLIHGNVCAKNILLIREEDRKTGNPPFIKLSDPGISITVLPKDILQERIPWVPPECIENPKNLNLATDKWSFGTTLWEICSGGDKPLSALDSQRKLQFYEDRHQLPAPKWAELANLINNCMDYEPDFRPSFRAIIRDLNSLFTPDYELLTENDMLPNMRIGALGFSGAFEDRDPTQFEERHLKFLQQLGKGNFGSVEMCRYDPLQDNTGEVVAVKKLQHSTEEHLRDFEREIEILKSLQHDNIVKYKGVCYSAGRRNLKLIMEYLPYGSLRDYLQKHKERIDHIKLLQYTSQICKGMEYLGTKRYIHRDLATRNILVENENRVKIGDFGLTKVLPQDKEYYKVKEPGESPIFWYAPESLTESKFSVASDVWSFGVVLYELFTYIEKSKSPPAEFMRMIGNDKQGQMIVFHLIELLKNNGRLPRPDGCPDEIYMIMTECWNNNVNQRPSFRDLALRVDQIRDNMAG
Chain of JAK1 kinase (P23458 whole entry): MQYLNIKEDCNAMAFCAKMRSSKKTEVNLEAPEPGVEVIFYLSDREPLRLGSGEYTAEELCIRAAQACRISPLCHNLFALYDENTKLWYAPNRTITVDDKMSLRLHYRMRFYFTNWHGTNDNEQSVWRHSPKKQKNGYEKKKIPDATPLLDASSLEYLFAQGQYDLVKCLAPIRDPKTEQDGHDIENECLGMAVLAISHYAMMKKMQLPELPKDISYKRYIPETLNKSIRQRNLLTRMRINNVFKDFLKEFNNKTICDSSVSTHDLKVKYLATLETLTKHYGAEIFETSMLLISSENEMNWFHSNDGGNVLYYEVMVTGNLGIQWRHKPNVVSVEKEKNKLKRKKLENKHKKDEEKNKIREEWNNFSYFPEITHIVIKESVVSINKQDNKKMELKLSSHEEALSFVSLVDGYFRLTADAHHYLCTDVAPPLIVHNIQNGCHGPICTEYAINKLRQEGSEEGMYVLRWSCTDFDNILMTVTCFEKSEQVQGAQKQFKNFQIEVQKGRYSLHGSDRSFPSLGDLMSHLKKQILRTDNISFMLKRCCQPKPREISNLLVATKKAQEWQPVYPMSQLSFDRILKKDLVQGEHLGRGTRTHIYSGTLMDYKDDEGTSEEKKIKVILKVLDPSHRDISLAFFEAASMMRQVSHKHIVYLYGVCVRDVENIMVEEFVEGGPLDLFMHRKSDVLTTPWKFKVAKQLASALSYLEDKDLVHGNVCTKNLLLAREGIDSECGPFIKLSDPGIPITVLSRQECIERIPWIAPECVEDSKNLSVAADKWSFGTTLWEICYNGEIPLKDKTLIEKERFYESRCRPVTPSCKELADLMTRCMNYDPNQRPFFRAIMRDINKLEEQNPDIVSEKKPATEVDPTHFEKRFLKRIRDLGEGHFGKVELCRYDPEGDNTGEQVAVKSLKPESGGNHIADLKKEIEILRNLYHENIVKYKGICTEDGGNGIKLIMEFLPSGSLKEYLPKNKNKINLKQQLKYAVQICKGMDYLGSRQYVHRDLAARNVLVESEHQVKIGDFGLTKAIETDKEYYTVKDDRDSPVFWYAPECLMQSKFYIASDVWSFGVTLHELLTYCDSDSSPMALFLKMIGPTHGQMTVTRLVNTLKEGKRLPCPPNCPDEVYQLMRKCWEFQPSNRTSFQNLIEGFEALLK
T1 sequence (P29597 whole entry): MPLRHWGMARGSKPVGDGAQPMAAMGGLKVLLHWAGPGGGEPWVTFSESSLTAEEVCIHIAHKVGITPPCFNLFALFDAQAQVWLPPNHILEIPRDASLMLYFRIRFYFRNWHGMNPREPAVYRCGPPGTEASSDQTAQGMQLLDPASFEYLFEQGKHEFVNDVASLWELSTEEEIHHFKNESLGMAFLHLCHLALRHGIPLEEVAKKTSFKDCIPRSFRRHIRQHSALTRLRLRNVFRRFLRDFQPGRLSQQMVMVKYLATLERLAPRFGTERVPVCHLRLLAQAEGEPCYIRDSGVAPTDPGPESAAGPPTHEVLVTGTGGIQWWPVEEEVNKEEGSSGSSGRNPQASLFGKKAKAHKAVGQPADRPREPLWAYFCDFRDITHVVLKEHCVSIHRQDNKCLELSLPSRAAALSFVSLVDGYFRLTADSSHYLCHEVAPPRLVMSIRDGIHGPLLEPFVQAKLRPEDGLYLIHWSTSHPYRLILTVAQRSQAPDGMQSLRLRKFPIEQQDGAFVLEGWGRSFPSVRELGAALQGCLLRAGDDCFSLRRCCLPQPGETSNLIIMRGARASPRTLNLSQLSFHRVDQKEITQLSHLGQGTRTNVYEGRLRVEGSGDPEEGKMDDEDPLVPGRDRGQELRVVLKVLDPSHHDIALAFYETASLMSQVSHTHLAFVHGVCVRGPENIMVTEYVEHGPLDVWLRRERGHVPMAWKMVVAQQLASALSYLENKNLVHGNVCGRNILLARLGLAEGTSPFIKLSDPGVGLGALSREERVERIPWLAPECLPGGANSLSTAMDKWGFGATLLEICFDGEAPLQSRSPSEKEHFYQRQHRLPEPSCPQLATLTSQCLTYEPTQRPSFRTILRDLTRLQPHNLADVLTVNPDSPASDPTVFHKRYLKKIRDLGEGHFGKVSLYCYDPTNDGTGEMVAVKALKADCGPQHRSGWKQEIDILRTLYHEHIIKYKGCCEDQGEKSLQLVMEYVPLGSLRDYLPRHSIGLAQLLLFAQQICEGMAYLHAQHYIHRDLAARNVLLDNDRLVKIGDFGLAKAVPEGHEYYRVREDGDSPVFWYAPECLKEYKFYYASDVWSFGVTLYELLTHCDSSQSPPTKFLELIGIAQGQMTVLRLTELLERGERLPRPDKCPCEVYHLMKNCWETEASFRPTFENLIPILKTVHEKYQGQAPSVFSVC

For `C=CCNc1nc(Nc2ccc3c(c2)NC[C@H](O)CO3)ncc1C(N)=O` [Example 60, 4-(allylamino)-2-(((S)-2,3,4,5-tetrahydro-3-hydroxybenzo[b][1,4]oxazepin-7-yl)amino)pyrimidin-5-carboxamide], the IC50 in assay [1] is below 10 nM; in assay [2], below 10 nM; in assay [3] it was 10 to 100 nM; in assay [4], 10 to 100 nM; in assay [5], 10 to 100 nM.

`C#CCCNc1nc(Nc2ccc3c(c2)NC[C@H](O)CO3)ncc1C(N)=O` [Example 66, 4-(but-3-yn-1-ylamino)-2-(((S)-2,3,4,5-tetrahydro-3-hydroxybenzo[b][1,4]oxazepin-7-yl)amino)pyrimidin-5-carboxamide]: the IC50 in assay [1] is below 10 nM; in assay [2], below 10 nM; in assay [3], 10 to 100 nM; in assay [4], 10 to 100 nM; in assay [5], 10 to 100 nM.

For the compound `CC1(Nc2nc(Nc3ccc4c(c3)NC[C@H](O)CO4)ncc2C(N)=O)CC1` [Example 68, 4-((1-methylcyclopropyl)amino)-2-(((S)-2,3,4,5-tetrahydro-3-hydroxybenzo[b][1,4]oxazepin-7-yl)amino)pyrimidin-5-carboxamide], the half-maximal inhibitory concentration (IC50) was below 10 nM in assay [1]; below 10 nM in assay [2]; below 10 nM in assay [3]; 10 to 100 nM in assay [4]; 10 to 100 nM in assay [5].

With `CCCNc1nc(Nc2ccc3c(c2)NC[C@H](O)CO3)ncc1C(N)=O` [Example 69, 4-(propylamino)-2-(((S)-2,3,4,5-tetrahydro-3-hydroxybenzo[b][1,4]oxazepin-7-yl)amino)pyrimidin-5-carboxamide], the IC50 in assay [1] is below 10 nM; in assay [2], below 10 nM; in assay [3], 10 to 100 nM; in assay [4], 10 to 100 nM; in assay [5], 10 to 100 nM.

As to `C#CCCCNc1nc(Nc2ccc3c(c2)NC[C@H](O)CO3)ncc1C(N)=O` [Example 72, 4-(pent-4-yn-1-ylamino)-2-(((S)-2,3,4,5-tetrahydro-3-hydroxybenzo[b][1,4]oxazepin-7-yl)amino)pyrimidin-5-carboxamide], the concentration for half-maximal inhibition (IC50) was below 10 nM in assay [1]; below 10 nM in assay [2]; below 10 nM in assay [3]; below 10 nM in assay [4]; 10 to 100 nM in assay [5].

Turning to `C=CCCNc1nc(Nc2ccc3c(c2)NC[C@H](O)CO3)ncc1C(N)=O` [Example 76, 4-(but-3-enylamino)-2-(((S)-2,3,4,5-tetrahydro-3-hydroxybenzo[b][1,4]oxazepin-7-yl)amino)pyrimidin-5-carboxamide], the IC50 was 10 to 100 nM in assay [1]; below 10 nM in assay [2]; below 10 nM in assay [3]; below 10 nM in assay [4]; 10 to 100 nM in assay [5].

In the case of `COCCO[C@H]1CNc2cc(Nc3ncc(C(N)=O)c(NC4CC4)n3)ccc2OC1` [Example 78, 4-(cyclopropylamino)-2-(((S)-2,3,4,5-tetrahydro-3-methoxyethoxybenzo[b][1,4]oxazepin-7-yl)amino)pyrimidin-5-carboxamide], the IC50 was below 10 nM in assay [1]; below 10 nM in assay [2]; 10 to 100 nM in assay [3]; 10 to 100 nM in assay [4]; 10 to 100 nM in assay [5].

For `CCO[C@H]1CNc2cc(Nc3ncc(C(N)=O)c(NC4CC4)n3)ccc2OC1` [Example 79, 4-(cyclopropylamino)-2-(((S)-2,3,4,5-tetrahydro-3-ethoxybenzo[b][1,4]oxazepin-7-yl)amino)pyrimidin-5-carboxamide], the IC50 in assay [1] is below 10 nM; in assay [2], below 10 nM; in assay [3], 10 to 100 nM; in assay [4], 10 to 100 nM; in assay [5] it was 10 to 100 nM.

Regarding `CO[C@@H]1CNc2cc(Nc3ncc(C(N)=O)c(NC4CC4)n3)ccc2OC1` [Example 80, 4-(cyclopropylamino)-2-(((R)-2,3,4,5-tetrahydro-3-methoxybenzo[b][1,4]oxazepin-7-yl)amino)pyrimidin-5-carboxamide], the 50% inhibitory concentration (IC50) in assay [1] was below 10 nM; in assay [2], 10 to 100 nM; in assay [3] it was below 10 nM; in assay [4] it was below 10 nM; in assay [5], 10 to 100 nM.

With `COCCO[C@@H]1CNc2cc(Nc3ncc(C(N)=O)c(NC4CC4)n3)ccc2OC1` [Example 86, 4-(cyclopropylamino)-2-(((R)-2,3,4,5-tetrahydro-3-methoxyethoxybenzo[b][1,4]oxazepin-7-yl)amino)pyrimidin-5-carboxamide], the IC50 in assay [1] is below 10 nM; in assay [2], 10 to 100 nM; in assay [3] it was below 10 nM; in assay [4] it was 10 to 100 nM; in assay [5], 10 to 100 nM.

Turning to `[2H]C([2H])([2H])O[C@H]1CNc2cc(Nc3ncc(C(N)=O)c(NC4CC4)n3)ccc2OC1` [Example 87, 4-(cyclopropylamino)-2-(((S)-2,3,4,5-tetrahydro-3-(trideuteromethoxy)benzo[b][1,4]oxazepin-7-yl)amino)pyrimidin-5-carboxamide], the IC50 in assay [1] was below 10 nM; in assay [2] it was below 10 nM; in assay [3], below 10 nM; in assay [4] it was 10 to 100 nM; in assay [5], 10 to 100 nM.

With `COCCOCCO[C@H]1CNc2cc(Nc3ncc(C(N)=O)c(NC4CC4)n3)ccc2OC1` [Example 89, 4-(cyclopropylamino)-2-(((S)-2,3,4,5-tetrahydro-3-(2-(2-methoxyethoxy)ethoxy)benzo[b][1,4]oxazepin-7-yl)amino)pyrimidin-5-carboxamide], the IC50 in assay [1] is below 10 nM; in assay [2], below 10 nM; in assay [3], 10 to 100 nM; in assay [4], 10 to 100 nM; in assay [5], 10 to 100 nM.

On to `CCOC(=O)CO[C@H]1CNc2cc(Nc3ncc(C(N)=O)c(NC4CC4)n3)ccc2OC1` [Example 91, 4-(cyclopropylamino)-2-(((S)-2,3,4,5-tetrahydro-3-ethoxycarbonylmethoxybenzo[b][1,4]oxazepin-7-yl)amino)pyrimidin-5-carboxamide], for which the IC50 in assay [1] was below 10 nM; in assay [2] it was below 10 nM; in assay [3], 10 to 100 nM; in assay [4], 10 to 100 nM; in assay [5], 10 to 100 nM.

Take `NC(=O)c1cnc(Nc2ccc3c(c2)NC[C@H](OCCO)CO3)nc1NC1CC1` [Example 92, 4-(cyclopropylamino)-2-(((S)-2,3,4,5-tetrahydro-3-(2-hydroxyethoxy)benzo[b][1,4]oxazepin-7-yl)amino)pyrimidin-5-carboxamide]: the concentration for half-maximal inhibition (IC50) was below 10 nM in assay [1]; below 10 nM in assay [2]; below 10 nM in assay [3]; below 10 nM in assay [4]; 10 to 100 nM in assay [5].

`NC(=O)c1cnc(Nc2ccc3c(c2)NC[C@H](OCC(=O)O)CO3)nc1NC1CC1` [Example 94, 4-(cyclopropylamino)-2-(((S)-2,3,4,5-tetrahydro-3-(carboxymethoxy)benzo[b][1,4]oxazepin-7-yl)amino)pyrimidin-5-carboxamide]: the IC50 is below 10 nM in assay [1]; below 10 nM in assay [2]; below 10 nM in assay [3]; 10 to 100 nM in assay [4]; 10 to 100 nM in assay [5].

As to `CCOCCO[C@H]1CNc2cc(Nc3ncc(C(N)=O)c(NC4CC4)n3)ccc2OC1` [Example 95, 4-(cyclopropylamino)-2-(((S)-2,3,4,5-tetrahydro-3-(2-ethoxyethoxy)benzo[b][1,4]oxazepin-7-yl)amino)pyrimidin-5-carboxamide], the IC50 in assay [1] is below 10 nM; in assay [2], below 10 nM; in assay [3] it was 10 to 100 nM; in assay [4], below 10 nM; in assay [5] it was 10 to 100 nM.

What is called IC50 is the concentration at which inhibition is half-maximal. High values mean weaker potency, low ones greater potency.
